Consider 20 compounds from US8871767B2, “2-arylimidazo[1,2-B]pyridazine, 2-phenylimidazo[1,2-A]pyridine, and 2-phenylimidazo[1,2-A]pyrazine derivatives” (Hengrui (USA) Ltd., priority 2010, dated 2014).

Read-outs that look alike come from different tables or passages of the source.

Assay [1] concerns Hedgehog pathway activation on 10T1/2/Smo#3 cells (C3H10T1/2 cells transfected with human Smoothened receptor). As to the kind of experiment: Hedgehog pathway activation on 10T1/2/Smo#3 cells measured by ALP activity. The format is cell-based. The following applies: Mus musculus, C3H 10T1/2, 10T1/2/Smo#3 cells. In a few lines:
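C3H10T1/2 cells stably expressing human Smoothened were activated with hShh-conditioned medium (10-20%) or 500 nM SAG, with test compounds present. Pathway block read as inhibited ALP activity (4-methylumbelliferyl phosphate fluorescence); viability checked by CellTiter-Blue. IC50 values reported.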

Assay [2] relates to Hedgehog pathway activation (GLi-luciferase reporter) in Shh Light II reporter cells. As to the kind of experiment: Hedgehog pathway activation on Shh Light II reporter cells measured by luciferase activity. The format is cell-based. The following applies: Mus musculus, Shh Light II. In a few lines: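 Shh Light II reporter cells carrying a hedgehog-responsive GLi-luciferase reporter were stimulated either with 500 nM SAG, a direct Smoothened agonist, or with conditioned media containing human Sonic Hedgehog (hShh). Test compounds were evaluated for blocking this pathway activation, quantified by luciferase activity. Cell viability was monitored in parallel with the Celltiter-Blue® assay.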

Where [3] appears, read: measured by ALP activity, read-out: ALP (IC50, inhibition of Hedgehog pathway activation).
Setting [4] is: hShh activation, read-out: Shh (IC50, inhibition of Hedgehog pathway activation).
[5] abbreviates: hShh activation, ALP activity, read-out: 10T1/2/Smo#3 ALP activity (hShh Activation).
[6] abbreviates: SAG activation (500 nM SAG), read-out: Shh Light II luciferase activity (SAG activation).
The mark [7] stands for this setting: hShh activation, read-out: Shh Light II luciferase activity (hShh activation).

As for `Cc1ccc(-c2cn3nc(-c4cscn4)ccc3n2)cc1NC(=O)C(C)(C)C` [Example 445, N-(2-methyl-5-(6-(thiazol-4-yl)imidazo[1,2-b]pyridazin-2-yl)phenyl)pivalamide], the figures for the IC50 in assay [1] (setting [3]) and in assay [2] (setting [4]) were 0.578 µM and 0.794 µM, respectively.
Turning to `C[C@@H]1CCCC[C@H]1Oc1ccc2nc(-c3ccc(C(F)(F)F)c(NC(=O)C(C)(C)C)c3)cn2n1` [Example 464, N-(5-(6-((1R,2R)-2-methylcyclohexyloxy)imidazo[1,2-b]pyridazin-2-yl)-2-(trifluoromethyl)phenyl)pivalamide], the IC50 is 0.4 µM in assay [1] (setting [3]) and 0.352 µM in assay [2] (setting [4]).
As for `CCCOc1ccc(F)c(-c2ccc3nc(-c4ccc(C(F)(F)F)c(NC(=O)C(C)(C)C)c4)cn3n2)c1` [Example 253, N-(5-(6-(2-fluoro-5-propoxyphenyl)imidazo[1,2-b]pyridazin-2-yl)-2-(trifluoromethyl)phenyl)pivalamide], the results for the IC50 in assay [1] (setting [3]) and in assay [2] (setting [4]) were 0.448 µM and 0.899 µM, respectively.
`COc1ccc2nc(-c3ccc(C)c(NC(=O)C(C)(C)C)c3)c(-c3ccc(F)cc3)n2n1` [Example 114, N-(5-(3-(4-fluorophenyl)-6-methoxyimidazo[1,2-b]pyridazin-2-yl)-2-methylphenyl)pivalamide]: the IC50 in assay [1] (setting [5]) is 3 to 30 µM; in assay [1] (setting [3]), > 10 µM; in assay [2] (setting [6]), 3 to 30 µM; in assay [2] (setting [4]), 7.67 µM; in assay [2] (setting [7]), 3 to 30 µM.
Regarding `CC(C)(C)C(=O)Nc1cc(-c2cn3nc(N4CC[C@@H](O)C4)ccc3n2)ccc1C(F)(F)F` [Example 341, (R)-N-(5-(6-(3-hydroxypyrrolidin-1-yl)imidazo[1,2-b]pyridazin-2-yl)-2-(trifluoromethyl)phenyl)pivalamide], the figures for the IC50 in assay [1] (setting [3]) and in assay [2] (setting [4]) were 0.109 µM and 0.123 µM, respectively.
On to `CCOc1ccc2nc(-c3ccc(C(F)(F)F)c(-c4ccccn4)c3)cn2n1` [Example 218, 6-ethoxy-2-(3-(pyridin-2-yl)-4-(trifluoromethyl)phenyl)imidazo[1,2-b]pyridazine], for which the IC50 in assay [1] (setting [5]) is 0.3 to 3 µM; in assay [1] (setting [3]) it was 2.12 µM; in assay [2] (setting [6]), 3 to 30 µM; in assay [2] (setting [4]) it was 1.72 µM; in assay [2] (setting [7]) it was 0.3 to 3 µM.
As for `Cc1ccc(-c2cn3nc(-c4ccc5nonc5c4)ccc3n2)cc1NC(=O)C(C)(C)C` [Example 449, N-(5-(6-(benzo[c][1,2,5]oxadiazol-5-yl)imidazo[1,2-b]pyridazin-2-yl)-2-methylphenyl)pivalamide], the IC50 in assay [1] (setting [3]) stood at 0.281 µM; in assay [2] (setting [4]), 0.311 µM.
With `CC1CCCCN1c1ccc2nc(-c3ccc(C(F)(F)F)c(NC(=O)C(C)(C)C)c3)cn2n1` (stereo not drawn) [Example 294, N-(5-(6-(2-methylpiperidin-1-yl)imidazo[1,2-b]pyridazin-2-yl)-2-(trifluoromethyl)phenyl)pivalamide], the IC50 in assay [1] (setting [3]) is 0.254 µM; in assay [2] (setting [4]), 0.256 µM.
In the case of `CNS(=O)(=O)c1cc(-c2cn3nc(-c4cccnc4C(F)(F)F)ccc3n2)ccc1Cl` [Example 698, 2-chloro-N-methyl-5-(6-(2-(trifluoromethyl)pyridin-3-yl)imidazo[1,2-b]pyridazin-2-yl)benzenesulfonamide], the results for the IC50 in assay [1] (setting [3]) and in assay [2] (setting [4]) were > 10 µM and 4.25 µM, respectively.
With `COc1ncccc1-c1ccc2nc(-c3ccc(C(F)(F)F)c(NC(=O)C(C)(C)C)c3)cn2n1` [Example 175, N-(5-(6-(2-methoxypyridin-3-yl)imidazo[1,2-b]pyridazin-2-yl)-2-(trifluoromethyl)phenyl)pivalamide], the IC50 was 0.513 µM in assay [1] (setting [3]) and 0.799 µM in assay [2] (setting [4]).
In the case of `Cc1ccc(-c2cn3nc(-c4cccnc4F)ccc3n2)cc1NC(=O)C(C)(C)C` [Example 265, N-(5-(6-(2-fluoropyridin-3-yl)imidazo[1,2-b]pyridazin-2-yl)-2-methylphenyl)pivalamide], the IC50 stood at 0.082 µM in assay [1] (setting [3]) and 0.083 µM in assay [2] (setting [4]).
As for `CSCCNc1ccc2nc(-c3ccc(C(F)(F)F)c(NC(=O)C(C)(C)C)c3)cn2n1` [Example 300, N-(5-(6-(2-(methylthio)ethylamino)imidazo[1,2-b]pyridazin-2-yl)-2-(trifluoromethyl)phenyl)pivalamide], the IC50 in assay [1] (setting [5]) is 0.3 to 3 µM; in assay [1] (setting [3]), 0.703 µM; in assay [2] (setting [6]) it was < 0.3 µM; in assay [2] (setting [4]) it was 0.535 µM; in assay [2] (setting [7]), 0.3 to 3 µM.
Take `Cc1ccc(-c2cn3nc(N4CC[C@@H](N(C)C)C4)ccc3n2)cc1NC(=O)C(C)(C)C` [Example 472, (R)-N-(5-(6-(3-(dimethylamino)pyrrolidin-1-yl)imidazo[1,2-b]pyridazin-2-yl)-2-methylphenyl)pivalamide]: the IC50 came to 0.11 µM in assay [1] (setting [3]) and 0.084 µM in assay [2] (setting [4]).
For the compound `COc1ccc2nc(-c3ccc(Cl)c(NC(=O)C(C)(C)C(F)(F)F)c3)cn2n1` [Example 119, N-(2-chloro-5-(6-methoxyimidazo[1,2-b]pyridazin-2-yl)phenyl)-3,3,3-trifluoro-2,2-dimethylpropanamide], the IC50 is 3 to 30 µM in assay [1] (setting [5]); 4.54 µM in assay [1] (setting [3]); 3 to 30 µM in assay [2] (setting [6]); 5.65 µM in assay [2] (setting [4]); 3 to 30 µM in assay [2] (setting [7]).
With `CC(C)(C)C(=O)Nc1cc(-c2cn3nc(N4CCC5(CC4)OCCO5)ccc3n2)ccc1C(F)(F)F` [Example 371, N-(5-(6-(1,4-dioxa-8-azaspiro[4.5]decan-8-yl)imidazo[1,2-b]pyridazin-2-yl)-2-(trifluoromethyl)phenyl)pivalamide], the IC50 was 0.296 µM in assay [1] (setting [3]) and 0.138 µM in assay [2] (setting [4]).
With `CC(C)(C)C(=O)Nc1cc(-c2cn3nc(N4CCSCC4)ccc3n2)ccc1C(F)(F)F` [Example 355, N-(5-(6-thiomorpholinoimidazo[1,2-b]pyridazin-2-yl)-2-(trifluoromethyl)phenyl)pivalamide], the results for the IC50 in assay [1] (setting [3]) and in assay [2] (setting [4]) were 0.24 µM and 0.142 µM, respectively.
As to `CC(C)(C)C(=O)Nc1cc(-c2cn3nc(Cc4ccccc4)ccc3n2)ccc1C(F)(F)F` [Example 231, N-(5-(6-benzylimidazo[1,2-b]pyridazin-2-yl)-2-(trifluoromethyl)phenyl)pivalamide], the IC50 in assay [1] (setting [5]) was 0.3 to 3 µM; in assay [2] (setting [6]), 3 to 30 µM; in assay [2] (setting [4]) it was 0.905 µM; in assay [2] (setting [7]), 0.3 to 3 µM.
Turning to `CN(C)[C@@H]1CCN(c2ccc3nc(-c4ccc(C(F)(F)F)c(NC(=O)C(C)(C)C)c4)cn3n2)C1` [Example 470, (R)-N-(5-(6-(3-(dimethylamino)pyrrolidin-1-yl)imidazo[1,2-b]pyridazin-2-yl)-2-(trifluoromethyl)phenyl)pivalamide], the values for the IC50 in assay [1] (setting [3]) and in assay [2] (setting [4]) were 0.028 µM and 0.065 µM, respectively.
Taken in the same sequence, the figures for `CC1CCN(c2ccc3nc(-c4ccc(C(F)(F)F)c(NC(=O)C(C)(C)C)c4)cn3n2)CC1` [Example 233, N-(5-(6-(4-methylpiperidin-1-yl)imidazo[1,2-b]pyridazin-2-yl)-2-(trifluoromethyl)phenyl)pivalamide] were 0.339 µM and 0.329 µM.
Taken in the same sequence, the figures for `CC(C)(C)C(=O)Nc1cc(-c2cn3nc(OCCN4CCCCC4)ccc3n2)ccc1C(F)(F)F` [Example 309, N-(5-(6-(2-(piperidin-1-yl)ethoxy)imidazo[1,2-b]pyridazin-2-yl)-2-(trifluoromethyl)phenyl)pivalamide] were 0.973 µM and 0.339 µM.
